According to patent US20160022605A1, “METHODS FOR REDUCING MICROSATELLITE INSTABILITY INDUCED BY CHEMOTHERAPY AND METHODS FOR SCREENING ANTIOXIDANTS THAT SUPPRESS DRUG-INDUCED MICROSATELLITE INSTABILITY WHILE ENHANCING THE CYTOTOXICITY OF CHEMOTHERAPEUTIC AGENTS” (priority 2014, published 2016):
“Also recorded” adds a separate entry of the source.

Key:
HCT116-(CA)13 cells [1] = test: REDOX library screen by high-content microscopy (MSI frequency and cell numbers); type: cell-based, human; conditions: 1 μM oxaliplatin, additional concentrations, 3-day co-treatment, 3-day recovery
Description: The REDOX library (Cat# BML-2835, ENZO, USA) is composed of 84 compounds that were supplied at 10 mM in DMSO. HCT116-(CA)13 cells were seeded at 1×10^4 cells per well in 96-well glass plates containing 100 μl growth medium. One day after seeding, the cells were co-treated with 1 μM oxaliplatin and an antioxidant at specified concentrations in triplicate for three days, followed by a 3-day recovery in fresh growth medium without the drug and antioxidants.

HCT116 cells [2] = test: Fluoresceinated PCR-based assay of endogenous microsatellites (Bethesda panel); type: cell-based, human; conditions: 3-day recovery
Description: Genomic DNA was isolated from HCT116 derivatives in 12-well plates with EasyPure Genomic DNA mini kit. The isolated DNA were amplified with fluoresceinated primers specific for the Bethesda panel of microsatellite [Boland et al., 1998] and selected coding microsatellites as described previously [Li et al., 2014]. Fluoresceinated PCR products were analyzed by the ABI 310 genetic analyzer, and electropherograms were generated with GeneScan Collection software (ABI).

HCT116 cells [3] = test: Intracellular ROS assay (DCDHF-DA, flow cytometry); type: cell-based, human; conditions: 3-day treatment, 3-day recovery; 10 μM 5-FU, 25 nM methotrexate, 50 μM CCNU, 1 μM oxaliplatin
Description: Intracellular ROS levels were measured using an oxidation-sensitive 2′,7′-dichlorodihydrofluorescein diacetate (DCDHF-DA) probe, which can be oxidized to the fluorescent 2′,7′-dichloro-fluorescein (DCF) product. After treatment, HCT116 derivatives in 12-well plates were harvested, washed and resuspended in PBS containing 10 μM DCDHF-DA, followed by 30-min incubation at 37° C. in the dark before being subjected to flow cytometry (Quanta SC-MPL). For a ROS curve of H2O2, 2×10^5 HCT116 derivatives were detached, washed, and incubated with 10 μM DCDHF-DA for 30 min at 37° C., followed by flow cytometric analysis after 30-min exposure to different concentrations of H2O2. After excluding cell debris on the basis of electronic volume and side scatter, the fluorescence intensity of DCF was measured in fluorescence channel 1 of the flow cytometer (λex: 488 nm; λem: 525 nm). The ROS level is expressed as the mean fluorescence intensity (MFI) of DCF from 10,000 cells per sample.

HCT116-(CA)13 cells [4] = test: Frameshift mutation (MSI) analysis by flow cytometry with dual-fluorescent reporter; conditions: for mutation frequency: 3-day treatment, 3-day recovery, untreated 0.46±0.04%; for MSI induction (in words): HCT116 derivatives, single drug
Description: (§2) Specified cells were seeded at 1×10^4 or 1×10^5 cells per well in 96-well or 12-well plates respectively. One day after seeding, the cells were treated in triplicates for 3 days with a tested drug in the presence or absence of an antioxidant at indicated concentrations. Subsequently, the drug and/or antioxidant were removed and cells were washed and recovered in fresh growth medium for 3 days before being subjected to analyses. […] On the other hand, PBS was used to make 0.5 M vitamin C stock, saline for making 0.5 M NAC and 0.1 M GSH stocks, and DMSO for making 10 mM curcumin and 10 mM eugenol. Prior to the experiments, PBS was used for diluting the drugs and antioxidants and the final solvent concentration was kept the same for all tested compounds, including untreated controls.
At the end of treatment, adherent cells in 12-well plates were trypsinized and resuspended in PBS containing 1 mM EDTA, and filtered through a 40-μm strainer, and then subjected to flow cytometry (Quanta™ SC-MPL, Beckman Coulter). […] The frequency of frameshift mutations is expressed as the percentage of DsRed^+GFP^+ subpopulation in the GFP^+ cell population.

HCT116+chr3-(CA)13 cells = test: MSI analysis by high-content microscopy in MMR-proficient cells; type: cell-based, human; conditions: 3-day treatment (50 μM CCNU, 5 μM etoposide, 25 nM vinblastine), 3-day recovery; base line 0.35%
Description: as §2

HCT116-(CA)13 cells [5] = conditions: for suppression of methotrexate-induced MSI: 25 nM methotrexate with 2.5 mM NAC, 250 μM vitamin C or 1.5 μM curcumin; for suppression of methotrexate-induced MSI / suppression of CCNU-induced MSI: 5 mM GSH; for suppression of CCNU-induced MSI: 50 μM CCNU with 2.5 mM NAC, 250 μM vitamin C, 1.5 μM curcumin or 150 μM eugenol
Description: After treatment, HCT116-(CA)13 cells in 96-well glass plates (Corning-Costar®) were fixed with 4% paraformaldehyde and nuclei were stained with 1 μg/ml Hoechst 33258. Fluorescent images of the cells were acquired at 100× magnification by ImageXpress^Micro system (Molecular Devices) and analyzed with MetaXpress® V3.1 software as described previously [Li et al., 2014]. The frequency of frameshift mutations of the (CA)13 microsatellite is expressed as the percentage of the DsRed^+GFP^+Hoechst^+ subpopulation in the GFP^+Hoechst^+ population.

HCT116-(CA)13 cells [6] = test: Cell viability (MTT assay) with drug and antioxidant co-treatment; conditions: for effect on methotrexate-mediated cytotoxicity (in words): 25 nM methotrexate with NAC, GSH or vitamin C
Description: (§1) Cell viability was determined by the MTT assay. Briefly, the optical density of colored formazan converted from MTT by viable cells was determined as previously described [Chang et al., 2002] at 595 nm with an ELISA reader (Thermo Labsystems). Cell viability is expressed as the optical density value of drug-treated cells relative to that of solvent-treated cells, after subtracting the background from the medium.

HCT116+chr3 cells = test: MTT assay in MMR-proficient cells; conditions: MMR-proficient HCT116+chr3, 1 μM oxaliplatin with 2-10 μM antioxidant, 3-day co-treatment
Description: as §1

HCT116 cells [7] = test: MTT assay, oxaliplatin co-treatment in MMR-deficient cells; conditions: MMR-deficient HCT116, 1 μM oxaliplatin with 2-10 μM antioxidant, 3-day co-treatment
Description: as §1

[8] = 3-day treatment, 10 μM 5-FU, 5 μM etoposide, 25 nM vinblastine, 50 μM CCNU, 25 nM methotrexate, 1 μM oxaliplatin
[9] = 1-day treatment, 100 μM CCNU or 100 nM methotrexate
[10] = 5 μM etoposide with 250 μM vitamin C

N#CC(=Cc1ccc(O)c(O)c1)C(=O)OC/C=C/c1ccccc1 (stereo in doubt) [CDC, [(E)-3-phenylprop-2-enyl] (Z)-2-cyano-3-(3,4-dihydroxyphenyl)prop-2-enoate]
outcome of secondary screen: oxaliplatin-induced MSI and oxaliplatin-mediated cytotoxicity (HCT116-(CA)13 cells [1]): most promising antioxidants

O=c1[nH]cc(F)c(=O)[nH]1 [5-FU, 5-fluoro-1H-pyrimidine-2,4-dione]
instability of Bethesda panel microsatellite markers (HCT116 cells [2]; [8]): induced the instability of the BAT25 microsatellite
intracellular ROS levels (HCT116 cells [3]): increased intracellular ROS levels
mutation frequency (HCT116-(CA)13 cells [4]; 2.5 μM): 5.91±0.49%
mutation frequency (HCT116-(CA)13 cells [4]; 5 μM): 6.37±0.96%
mutation frequency (HCT116-(CA)13 cells [4]; 10 μM): 8.05±2.01%
susceptibility of (CA)13 microsatellite to drug-induced mutations compared to (N)16 random sequence (HCT116-(CA)13 cells [4]; 5-FU 2.5-10 μM, HCT116-(CA)13 vs HCT116-(N)16): 1.2-2.8 fold
MSI induction (in words) (HCT116-(CA)13 cells [4]): induced MSI

O=NN(CCCl)C(=O)NC1CCCCC1 [CCNU, 1-(2-chloroethyl)-3-cyclohexyl-1-nitrosourea]
alteration of D5S346 (HCT116 cells [2]; 100 μM CCNU, 1-day treatment): 1-bp insertion in a non-repetitive region of D5S346
instability of Bethesda panel microsatellite markers (HCT116 cells [2]; [9]): caused the instability of BAT25 and/or BAT26 microsatellites
instability of Bethesda panel microsatellite markers (HCT116 cells [2]; [8]): failed to detect alterations
intracellular ROS levels (HCT116 cells [3]): generated the highest ROS level
MSI induction (in words) (HCT116-(CA)13 cells [4]): induced MSI
MSI frequency (HCT116+chr3-(CA)13 cells): 1.26%

N[C@@H](CCC(=O)N[C@@H](CS)C(=O)NCC(=O)O)C(=O)O [GSH, glutathione]
suppression of methotrexate-induced MSI (HCT116-(CA)13 cells [5]): 13%

CC(=O)N[C@@H](CS)C(=O)O [NAC, N-acetylcysteine]
effect on methotrexate-mediated cytotoxicity (in words) (HCT116-(CA)13 cells [6]): without affecting drug cytotoxicity
effect on oxaliplatin-mediated cytotoxicity (in words) (HCT116-(CA)13 cells [6]; 1 μM oxaliplatin with 2.5 mM NAC, 5 mM GSH or 150 μM eugenol): totally abolished
decrease of CCNU-mediated cytotoxicity (HCT116-(CA)13 cells [6]; 50 μM CCNU with 2.5 mM NAC or 5 mM GSH): approximately 25%
suppression of methotrexate-induced MSI (HCT116-(CA)13 cells [5]): 34%

O=c1cc(-c2ccccc2)oc2cc(O)c(O)c(O)c12 [baicalein, 5,6,7-trihydroxy-2-phenylchromen-4-one]
outcome of secondary screen: oxaliplatin-induced MSI and oxaliplatin-mediated cytotoxicity (HCT116-(CA)13 cells [1]): most promising antioxidants

Cc1cc(C2CCCCC2)n(O)c(=O)c1 [ciclopirox ethanolamine, 2-aminoethanol;6-cyclohexyl-1-hydroxy-4-methylpyridin-2-one]
outcome of secondary screen: oxaliplatin-induced MSI and oxaliplatin-mediated cytotoxicity (HCT116-(CA)13 cells [1]): most promising antioxidants

COc1cc(/C=C/C(=O)CC(=O)/C=C/c2ccc(O)c(OC)c2)ccc1O [curcumin, (1E,6E)-1,7-bis(4-hydroxy-3-methoxyphenyl)hepta-1,6-diene-3,5-dione]
suppression of methotrexate-induced MSI (HCT116-(CA)13 cells [5]): did not affect methotrexate-induced MSI
suppression of CCNU-induced MSI (HCT116-(CA)13 cells [5]): approximately 55%
effect on oxaliplatin-mediated cytotoxicity (HCT116+chr3 cells): did not show a significant effect
effect on oxaliplatin-mediated cytotoxicity (HCT116 cells [7]): did not show a significant effect
outcome of secondary screen: oxaliplatin-induced MSI and oxaliplatin-mediated cytotoxicity (HCT116-(CA)13 cells [1]): most promising antioxidants

COc1cc([C@@H]2c3cc4c(cc3[C@@H](O[C@@H]3O[C@@H]5CO[C@@H](C)O[C@H]5[C@H](O)[C@H]3O)[C@H]3COC(=O)[C@H]23)OCO4)cc(OC)c1O [etoposide, (5S,5aR,8aR,9R)-5-[[(2R,4aR,6R,7R,8R,8aS)-7,8-dihydroxy-2-methyl-4,4a,6,7,8,8a-hexahydropyrano[3,2-d][1,3]dioxin-6-yl]oxy]-9-(4-hydroxy-3,5-dimethoxyphenyl)-5a,6,8a,9-tetrahydro-5H-[2]benzofuro[6,5-f][1,3]benzodioxol-8-one]
instability of Bethesda panel microsatellite markers (HCT116 cells [2]; [8]): destabilized the BAT26 microsatellite
MSI frequency (HCT116+chr3-(CA)13 cells): 3.74%

C=CCc1ccc(O)c(OC)c1 [eugenol]
suppression of vinblastine-induced MSI (HCT116-(CA)13 cells [5]; 25 nM vinblastine with 150 μM eugenol): 40%
suppression of CCNU-induced MSI (HCT116-(CA)13 cells [5]): approximately 55%

Cc1cc2c(C(C)C)c(O)c(O)c(C=O)c2c(O)c1-c1c(C)cc2c(C(C)C)c(O)c(O)c(C=O)c2c1O [gossypol, 7-(8-formyl-1,6,7-trihydroxy-3-methyl-5-propan-2-ylnaphthalen-2-yl)-2,3,8-trihydroxy-6-methyl-4-propan-2-ylnaphthalene-1-carbaldehyde]
effect on oxaliplatin-mediated cytotoxicity (HCT116+chr3 cells): enhanced oxaliplatin-mediated cytotoxicity in a concentration-dependent manner
effect on oxaliplatin-mediated cytotoxicity (HCT116 cells [7]): enhanced oxaliplatin-mediated cytotoxicity in a concentration-dependent manner
outcome of secondary screen: oxaliplatin-induced MSI and oxaliplatin-mediated cytotoxicity (HCT116-(CA)13 cells [1]): most promising antioxidants; also recorded: suppress oxaliplatin-induced MSI while enhancing oxaliplatin-mediated cytotoxicity

CN(Cc1cnc2nc(N)nc(N)c2n1)c1ccc(C(=O)N[C@@H](CCC(=O)O)C(=O)O)cc1 [methotrexate, (2S)-2-[[4-[(2,4-diaminopteridin-6-yl)methyl-methylamino]benzoyl]amino] pentanedioic acid]
instability of Bethesda panel microsatellite markers (HCT116 cells [2]; [9]): caused the instability of BAT25 and/or BAT26 microsatellites
instability of Bethesda panel microsatellite markers (HCT116 cells [2]; [8]): failed to detect alterations
intracellular ROS levels (HCT116 cells [3]): but not 25 nM methotrexate increased intracellular ROS levels
MSI induction (in words) (HCT116-(CA)13 cells [4]): induced MSI

CCCCCCCCOC(=O)/C=C/c1ccc(O)c(O)c1 [n-octyl caffeate, Octyl 3-(3,4-dihydroxyphenyl)prop-2-enoate]
outcome of secondary screen: oxaliplatin-induced MSI and oxaliplatin-mediated cytotoxicity (HCT116-(CA)13 cells [1]): most promising antioxidants

N[C@@H]1CCCC[C@H]1N.O=C(O)C(=O)O.[Pt] [oxaliplatin, (1R,2R)-cyclohexane-1,2-diamine;oxalic acid;platinum]
instability of Bethesda panel microsatellite markers (HCT116 cells [2]; [8]): alterations of four out of five microsatellite markers
intracellular ROS levels (HCT116 cells [3]): intermediate ROS-generating abilities
MSI induction (in words) (HCT116-(CA)13 cells [4]): strong MSI-inducing; also recorded: induced MSI

CC[C@]1(O)C[C@@H]2CN(CCc3c([nH]c4ccccc34)[C@@](C(=O)OC)(c3cc4c(cc3OC)N(C)[C@H]3[C@@](O)(C(=O)OC)[C@H](OC(C)=O)[C@]5(CC)C=CCN6CC[C@]43[C@@H]65)C2)C1 [vinblastine]
instability of Bethesda panel microsatellite markers (HCT116 cells [2]; [8]): destabilized the BAT26 microsatellite
MSI induction (in words) (HCT116-(CA)13 cells [4]): induced MSI
MSI frequency (HCT116+chr3-(CA)13 cells): 2.10%

O=C1O[C@H]([C@@H](O)CO)C(O)=C1O [vitamin C]
effect on methotrexate-mediated cytotoxicity (in words) (HCT116-(CA)13 cells [6]): without affecting drug cytotoxicity
enhancement of etoposide-mediated cytotoxicity (HCT116-(CA)13 cells [6]; [10]): ~10%
effect on CCNU-mediated cytotoxicity (in words) (HCT116-(CA)13 cells [6]; 50 μM CCNU with 250 μM vitamin C): without significantly affecting drug cytotoxicity
suppression of methotrexate-induced MSI (HCT116-(CA)13 cells [5]): 12%
suppression of etoposide-induced MSI (HCT116-(CA)13 cells [5]; [10]): ~40%
suppression of CCNU-induced MSI (HCT116-(CA)13 cells [5]): ~24%
